Test [1] addresses T1, Aβ42 (amyloid beta 42) fibrils (Homo sapiens, UniProt P05067).
T1 construct: gene APP; Aβ42 fibrils
Kind of test: fluorescence titration of […] probe with fibrils. Format: binding.

The target in test [2] is T2, Aβ40 (amyloid beta 40) fibrils (Homo sapiens, UniProt P05067).
T2 construct: gene APP; Aβ40 fibrils
In words: fluorescence titration of […] probe with fibrils. Format: binding.

T1 sequence (P05067 672-713 limits assumed): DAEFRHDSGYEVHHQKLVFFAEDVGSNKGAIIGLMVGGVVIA
T2 sequence (P05067 672-711 limits assumed): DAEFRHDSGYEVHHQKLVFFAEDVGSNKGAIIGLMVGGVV

In the case of `CN(C)c1ccc(-c2ccc3cc(-c4nc5ccccc5s4)c(=N)oc3c2)cc1` [ICTAD-1], the dissociation constant Kd (in general, a measure of binding affinity in units of concentration) in test [1] was 3.78 µM; in test [2] it was 6.27 µM.

Source of the values: article PMC8159352, “Differentiating Aβ40 and Aβ42 in amyloid plaques with a small molecule fluorescence probe” (Chemical Science, 2020).
